The source of these data is US11034991B2, “Methods to determine KDM1A target engagement and chemoprobes useful therefor” (Oryzon Genomics S.A., priority 2016, dated 2021).

“Also recorded” adds a separate entry of the source. Counter-ions that a name gives are not always drawn.

One data set concerns the target human rKDM1A (Homo sapiens (Human), UniProt O60341). As to the kind of experiment: AlphaLISA detection of free KDM1A. Type of data set: binding. The note with it: pretreatment of the enzyme at 5 uM; chemoprobe Example 1.6 100 nM. As to the method:
The AlphaLISA assay detects the proximity of a first detection agent containing […] latex donor beads containing phthalocyanine that release singlet oxygen after irradiation at […] to a second detection agent containing similar sized acceptor beads containing Europium that emit a narrow peak of light at […] after absorption of singlet oxygen. The AlphaPlex assay allows detection of multiple analytes in the same assay volume and works similarly, but two acceptor beads are used (second and third detection agents) containing respectively Terbium or Samarium and emit light at 545 nM or 645 nM after absorption. Effective singlet oxygen transfer occurs when donor and acceptor beads are separated by a distance of less than 200 nm.
For example, anti-KDM1A antibody (mAb-844) was conjugated to AlphaLISA acceptor beads (Perkin Elmer #6772001) to generate a first detection agent, and anti-KDM1A antibody (mAb-825) was conjugated to AlphaLISA donor beads (Perkin Elmer #6762013) to generate a second detection agent that together form a detection system that can be used to determine total KDM1A levels. […]
Background: In Alpha technology, singlet oxygen from a donor bead excites a nearby acceptor bead.

For the next data set, the target named is KDM1A in LNCap cells (Homo sapiens (Human), UniProt O60341). In words: KDM1A target engagement in cells (chemoprobe luminescent ELISA), LNCap. Format: cell-based. The note with it: LNCap cells treated for 24 h at 0.1, 1 and 10 nM. The procedure:
Coating was performed at 4° C.

Data set [1] concerns the target T1, KDM1A in rat PBMCs (Rattus norvegicus (Rat), UniProt A0A8I6G2K8). As to the kind of experiment: In vivo KDM1A target engagement, ex vivo rat PBMCs. The note with it: pooled rat PBMC, oral gavage 4 consecutive days, 1, 3, 10 and 30 ug/kg/day, two hours after last administration. As to the method: Peripheral blood mononuclear cells (PBMCs) from rat were isolated from peripheral fresh blood collected in anticoagulant tubes for blood (K2- or K3-EDTA as the preferred anticoagulant tubes) and diluted with an equal volume of PBS, using Ficoll-Paque PLUS reagent (GE Healthcare; #17-1440-02) or Leucosep Tubes (Greiner bio-one; #227288) according to manufacturer's instructions. Cells were stained with tryptan blue and cell number and viability were determined using a Neubauer Chamber in an optical microscope. Pellets of 1·10^6 PBMCs were preserved at −80° C. The same procedure can be used for isolation of PBMCs from other resources such as human or mouse blood. In the case of human samples, preferably Leucosep procedure is used, whereas for mouse PBMCs, Ficoll procedure is preferred.
8.1. Samples preparation and obtention of protein extracts from cells was performed as described in example 5. Frozen tissues were homogenized with a mortar and pestle chilled on dry ice. […]
(§1) Four different doses were used (1, 3, 10 and 30 ug/kg/day). The KDM1A target engagement was calculated as described previously (see example 7), where RX corresponds to each condition analyzed and RREF is the sample corresponding to vehicle (non treated) rat PBMCs.

A further data set deals with KDM1A in rat lung (Rattus norvegicus (Rat), UniProt A0A8I6G2K8). As to the kind of experiment: In vivo KDM1A target engagement, ex vivo rat lung. The note with it: pooled rat lung, oral gavage 4 consecutive days, 1, 3, 10 and 30 ug/kg/day. As to the method: (§2) 8.1. Samples preparation and obtention of protein extracts from cells was performed as described in example 5. Frozen tissues were homogenized with a mortar and pestle chilled on dry ice. Powdered samples were resuspended in lysis buffer and forced through a 18 gauge blunt syringe needle to lyse the cells, proteins were then extracted as described above for cell pellets (example 5.2). Isolation of PBMCs from peripheral blood was also as described in example 5.2.
(§3) 8.2. Assay Protocol and Calculation of TE: same as Described in Example 7.1 and 7.2.
as §1

In data set [2] the target is T1, KDM1A in rat PBMCs. As to the kind of experiment: Dynamics of KDM1A target engagement in rat pooled PBMCs. Format: in vivo. As to the method: Obtention of proteins extracts, assay protocol and calculation of TE as described in example 8.1, 7.1 and 7.2 respectively.
PBMCs were obtained pre-dose (before starting the drug administration) and 2, 6, 24 h after the single dose administration, or pre-dose (i.e. 0 h) and 2, 6, 24, 48 and 72 h after the last drug administration in the multiple dose administration. Total and free KDM1A protein levels in PBMCs were assessed using 0.5 ug of total protein extracts. […] The KDM1A target engagement was calculated as described previously (see section 7.2)), where RX corresponds to each time-point analyzed and RREF is the sample corresponding to the pre-dose of rat PBMC.

A further data set concerns the target KDM1A from THP-1 cells (Homo sapiens (Human), UniProt O60341). The conditions noted are these: pretreatment with 25 nM; chemoprobe example 1.1.
Data set [3] concerns the target KDM1A from MV(4;11) cells (Homo sapiens (Human), UniProt O60341). The note with it: MV(4;11) cells pre-treated with 25 nM; chemoprobes Examples 1.4 and 1.5.
Procedure: (§6) Tubes were incubated for 5 min on ice and briefly sonicated to achieve lysis. The resulting extracts were centrifuged 10 min at 14.000×g at 4° C. Supernatants were collected and quantified by Bradford assay (BIO-RAD; #500-0006) following manufacturer's instructions.
(§7) 350 μg of protein extracts (containing the chemoprobe) was then added and incubated for 30 min at room temperature (RT) using gentle rotation. The chemoprobe-KDM1A complex bound to the streptavidin beads was separated using a magnet and washed 4 times in PBS. After the last wash, samples were resuspended in 25 μL of 3×SDS Sample Buffer and analyzed by western blot. Samples were separated on a 10% Bis-Tris NuPAGE® Novex® Precast gel (Invitrogen; #P0301BOX) following manufacturer's instructions. Gels were transferred onto nitrocellulose membrane (GE Healthcare; #RPN303D) for immunodetection by semi-dry transfer. N-specific binding sites were blocked by incubating membranes in blocking buffer (5% non-fat dry milk in PBS-Tween 0.1%) at RT for 1 h. […] Signal was detected by enhanced chemiluminescence (ECL, Amersham, GE Healthcare; #W9643350) using a GeneGnome HR System (Syngene).
In another data set the target is KDM1A in MV(4;11) cells (Homo sapiens (Human), UniProt O60341). The note with it: 24 h of treatment.
For another data set, the target named is KDM1A in THP-1 cells (Homo sapiens (Human), UniProt O60341). As to the kind of experiment: KDM1A target engagement in cells (chemoprobe luminescent ELISA), THP-1. The note with it: THP-1 cells treated for 24 h, 0.25-25 nM. In general terms: ELISA stands for enzyme-linked immunosorbent assay.
For the next data set, the target named is Human recombinant MAO-A (Homo sapiens (Human), UniProt P21397). In words: MAO inhibition (kynuramine fluorescence assay), MAO-A. Format: biochemical. The note with it: kynuramine at KM, 1 h at 37° C. As to the method: (§4) The target selectivity of the chemoprobes for binding FAD in KDM1A relative to other FAD containing enzymes is evaluated by testing the chemoprobes in different biochemical assays to determine its MAO-A, MAO-B, IL4I1 and SMOX inhibitory activity in vitro. All IC50 values were calculated using Graph Prism Software.
Sequence of Human recombinant MAO-A (P21397 whole entry): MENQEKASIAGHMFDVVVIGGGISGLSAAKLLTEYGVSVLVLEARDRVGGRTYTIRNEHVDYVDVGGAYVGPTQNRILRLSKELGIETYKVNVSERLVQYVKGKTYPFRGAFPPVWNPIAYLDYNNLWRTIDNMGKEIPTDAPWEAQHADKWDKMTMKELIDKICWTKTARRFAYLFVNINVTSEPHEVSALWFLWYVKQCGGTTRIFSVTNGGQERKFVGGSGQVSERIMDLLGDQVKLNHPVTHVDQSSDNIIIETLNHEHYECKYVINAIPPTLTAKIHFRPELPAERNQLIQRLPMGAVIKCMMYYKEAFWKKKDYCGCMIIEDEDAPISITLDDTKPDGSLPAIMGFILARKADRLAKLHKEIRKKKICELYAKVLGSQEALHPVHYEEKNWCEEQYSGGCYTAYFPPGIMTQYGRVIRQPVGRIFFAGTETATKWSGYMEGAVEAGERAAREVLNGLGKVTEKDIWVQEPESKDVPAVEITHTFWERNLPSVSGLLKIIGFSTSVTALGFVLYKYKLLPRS
(§5) Human recombinant MAO-A and MAO-B were purchased from Sigma Aldrich (#M7316 and #M7441 respectively). Enzymatic activities and inhibition rate were analyzed in a fluorescence based assay using kynuramine (Sigma Aldrich #K3250) as a substrate. Clorgiline and Deprenyl (Sigma Aldrich #M3778 and #M003) were used as controls for specific inhibition of MAO-A and MAO-B respectively. Compounds were pre-incubated with protein for 15 min on ice in 100 mM Hepes pH 7.5. The enzymatic reaction was initiated by the addition of specific KM Kynuramine and incubated 1 h at 37° C. The reaction was stopped by adding NaOH 2N (v/v). The conversion of kynuramine to 4-hydroxyquinoline was monitored by fluorescence (λex=320 nm, λem=360 nm) using a microplate reader.

The next data set addresses Human recombinant MAO-B (Homo sapiens (Human), UniProt P27338). In words: MAO inhibition (kynuramine fluorescence assay), MAO-B. The note with it: kynuramine at KM, 1 h at 37° C. Type of data set: biochemical. As to the method:
as §4, §5

For a further data set, the target named is hIL-4I1 (Homo sapiens (Human), UniProt Q96RQ9). As to the kind of experiment: IL-4I1 inhibition (phenylalanine oxidation, HRP/Amplex red). Format: biochemical. The procedure:
as §4
Human recombinant IL-411 was purchased from RD Systems (#5684-A0-020). The biochemical activity was measured by its ability to oxidize phenylalanine and produce H2O2 in a horseradish-peroxidase coupled assay using Amplex red as substrate.

The target in data set [4] is Mouse recombinant SMOX enzyme (Mus musculus (Mouse), UniProt Q99K82). As to the kind of experiment: SMOX inhibition (spermine oxidation, HRP/Amplex red). The note with it: KM spermine, 10 minutes; read-out: mSMOX IC50. Type of data set: biochemical. As to the method: as §4
Sequence of Mouse recombinant SMOX enzyme (Q99K82 whole entry): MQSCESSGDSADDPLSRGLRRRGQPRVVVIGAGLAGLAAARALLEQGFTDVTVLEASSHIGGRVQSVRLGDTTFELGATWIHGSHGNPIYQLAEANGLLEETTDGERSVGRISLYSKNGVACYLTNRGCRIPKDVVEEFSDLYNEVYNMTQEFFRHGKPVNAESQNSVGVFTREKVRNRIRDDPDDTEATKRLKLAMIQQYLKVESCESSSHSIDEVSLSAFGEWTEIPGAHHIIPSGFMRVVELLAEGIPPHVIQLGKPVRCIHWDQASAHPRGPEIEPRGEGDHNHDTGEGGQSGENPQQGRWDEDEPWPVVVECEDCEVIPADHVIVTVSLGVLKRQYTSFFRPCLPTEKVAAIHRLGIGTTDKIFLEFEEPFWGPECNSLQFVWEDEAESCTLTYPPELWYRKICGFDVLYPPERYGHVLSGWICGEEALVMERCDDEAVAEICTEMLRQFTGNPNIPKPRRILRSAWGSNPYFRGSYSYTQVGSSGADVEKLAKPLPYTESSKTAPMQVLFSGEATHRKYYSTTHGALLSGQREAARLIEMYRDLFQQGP
Mouse recombinant SMOX enzyme was provided by Professor Paolo Mariottini (Rome University). The biochemical activity was measured by its ability to oxidize spermine in a horseradish peroxidase coupled assay using Amplex red as a substrate. The assay buffer for mSMOX reaction was 100 mM Sodium Phosphate pH 8.0. The inhibition by tested compounds was monitored during 10 minutes in the presence of KM spermine.

A further data set concerns KDM1A in brain. As to the kind of experiment: In vivo KDM1A target engagement, brain of SAMP8 mice. The procedure:
as §2, §3
The methods of the invention have also been used to determine KDM1A target engagement in SAMP8 mice (a non-transgenic model for neurodegeneration reminiscent of Alzheimer's disease) which have been treated with the KDM1A inhibitor designated as Compound C. Compound C is the compound with chemical name (−)5-((((trans)-2-(4-(benzyloxy)phenyl)cyclopropyl)amino)methyl)-1,3,4-oxadiazol-2-amine, which is described in WO2012/013728. […] Female SAMP8 mice were treated with Compound C starting at 5 months of age and during 2 months. Mice were randomly distributed in three groups, receiving vehicle or Compound C at 0.11 mg/kg/day or 0.32 mg/kg/day, respectively. […] The dose was calculated according to the animal water consumption average per cage and adjusted weekly. […]

The next data set deals with KDM1A in PBMCs (Homo sapiens (Human), UniProt O60341). In words: KDM1A target engagement in PBMCs of healthy volunteers (Phase I clinical study). Format: in vivo. The note with it: single oral dose of 1.5 mg, 12 and 72 h post-administration, 6 volunteers. The procedure: A Phase I clinical study has been performed to characterize the safety, tolerability, pharmacokinetics and pharmacodynamics of Compound C in healthy volunteers. The first stage of this clinical study is a randomized, double-blind, dose escalation study, in which the KDM1A inhibitor was administered as a single oral dose in capsules. Up to five different dose levels were tested in cohorts of 8 volunteers, randomized to receive either Compound C (n=6) or placebo (n=2). As part of the pharmacodynamic evaluations in this clinical study, KDM1A target engagement (TE) was assessed at pre-treatment, and 12 and 72 h after drug administration. Briefly, blood samples (10 mL) were collected in EDTA-K2 tubes from all the treated volunteers (active drug and placebo, n=8 per dose level) and PBMCs pellets obtained by density gradient centrifugation in Leucosep™ tubes and stored at −90° C. until analysis. Only PBMC samples meeting pre-established sample quality control criteria are used for the TE analysis. In particular, samples with signs of hemolysis and/or with traces of red cells are discarded.
KDM1A TE values obtained for each volunteer in the cohort of volunteers corresponding to the single dose of 1.5 mg of Compound C are shown in FIG. 11.

Data set [5] deals with human recombinant KDM1A enzyme (Homo sapiens (Human), UniProt O60341). The note with it: read-out: KDM1A IC50 (biochemical assay).
Procedure: The ability of the chemoprobes to inhibit KDM1A was tested in vitro using the assay described below.
KDM1A inhibition assay: a multistep enzymatic reaction in which the enzyme first produces H2O2 during the demethylation of lysine 4 in a 21 AA H3K4me2 N-terminal peptide. […] After 30 min of incubation at 37° C. Amplex Red reagent and the horseradish peroxidase (HRP) solution were added according to the recommendations of the supplier (Invitrogen) and left to incubate for 5 min at room temperature in the dark. Conversion of the Amplex Red reagent to resorufin, was monitored by fluorescence (λex=540 nm, λem=590 nm) using a microplate reader (Infinite F200 Tecan). Signals were corrected for background and the IC50 value was calculated with GraphPad Prism Software.

Sequence of hIL-4I1 (Q96RQ9 22-567): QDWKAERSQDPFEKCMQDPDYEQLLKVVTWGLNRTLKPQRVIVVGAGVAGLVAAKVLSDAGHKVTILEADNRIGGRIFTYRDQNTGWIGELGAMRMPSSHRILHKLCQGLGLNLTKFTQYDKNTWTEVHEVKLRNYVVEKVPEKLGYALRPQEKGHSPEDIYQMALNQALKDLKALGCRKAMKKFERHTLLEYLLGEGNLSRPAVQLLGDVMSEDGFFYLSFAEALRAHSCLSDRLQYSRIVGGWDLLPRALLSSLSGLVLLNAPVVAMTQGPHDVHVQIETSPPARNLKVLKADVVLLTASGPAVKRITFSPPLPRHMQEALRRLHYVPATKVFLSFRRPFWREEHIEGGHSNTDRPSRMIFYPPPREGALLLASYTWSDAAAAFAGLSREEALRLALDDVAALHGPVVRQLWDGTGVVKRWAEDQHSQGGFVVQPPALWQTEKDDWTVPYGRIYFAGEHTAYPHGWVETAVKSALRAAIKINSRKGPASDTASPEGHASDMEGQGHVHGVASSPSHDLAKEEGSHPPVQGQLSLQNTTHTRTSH
Sequence of Human recombinant MAO-B (P27338 whole entry): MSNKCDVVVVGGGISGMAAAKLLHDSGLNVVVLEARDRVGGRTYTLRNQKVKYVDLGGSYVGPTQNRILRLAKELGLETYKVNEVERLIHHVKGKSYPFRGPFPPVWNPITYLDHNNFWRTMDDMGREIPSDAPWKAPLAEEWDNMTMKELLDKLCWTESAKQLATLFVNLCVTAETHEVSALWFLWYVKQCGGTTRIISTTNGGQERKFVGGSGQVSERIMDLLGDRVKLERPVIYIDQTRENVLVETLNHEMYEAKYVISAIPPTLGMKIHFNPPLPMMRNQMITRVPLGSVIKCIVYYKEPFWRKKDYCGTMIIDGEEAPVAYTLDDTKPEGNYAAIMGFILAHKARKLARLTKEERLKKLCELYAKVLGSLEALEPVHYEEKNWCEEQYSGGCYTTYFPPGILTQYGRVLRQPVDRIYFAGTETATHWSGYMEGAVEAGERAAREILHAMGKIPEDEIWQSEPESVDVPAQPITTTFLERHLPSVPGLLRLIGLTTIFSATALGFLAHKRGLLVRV
Procedure for KDM1A from THP-1 cells: as §6, §7
Procedure for KDM1A in MV(4;11) cells: Total protein extracts were quantified and 1 ug of total protein was used to perform the target engagement analysis as described above, using the luminescent substrate.

Regarding `N[C@H]1CC[C@H](N[C@@H]2C[C@H]2c2ccccc2)CC1` [ORY-1001, (trans)-N1-((1R,2S)-2-phenylcyclopropyl)cyclohexane-1,4-diamine], the “free KDM1A signal (AlphaLISA)” value on human rKDM1A is given as “blocked”. Besides, at KDM1A in LNCap cells, the KDM1A target engagement result is reported as “clear KDM1A target engagement”. For the same molecule, the “KDM1A target engagement (in %)” value on KDM1A in rat PBMCs [1] and on KDM1A in rat lung was “clear dose-response of KDM1A target engagement” in each case. At KDM1A in rat PBMCs [2] (at the same dose level), the “target engagement after multiple administrations versus single administration” value was “higher than single administration”. In addition, the “percentage of KDM1A target engagement over time” value at KDM1A in rat PBMCs [2] (pooled rat PBMCs, p.o. 2.5 and 15 ug/kg/day, single dose or 5 consecutive days) is “clear time- and dose-response in KDM1A target engagement”. For the same molecule, the “percentage of KDM1A target engagement after the last dose in absence of further treatment” value on KDM1A in rat PBMCs [2] (up to 72 h after the last administration) is reported as “gradually decreases”. Moreover, on KDM1A from THP-1 cells, the “effect of pretreatment on pull-down of KDM1A by chemoprobe” value is “completely prevented pull-down of KDM1A”. Besides, the “effect of pre-treatment on pull-down of KDM1A by chemoprobes” value in data set [3] is recorded as “completely prevented pull-down of KDM1A”. The “% of KDM1A target engagement” value on KDM1A in MV(4;11) cells is reported as “dose-responsive cellular target engagement”. At KDM1A in THP-1 cells, the “% of Target engagement” value was “dose-responsive cellular target engagement”.
`N[C@H]1CC[C@H](N[C@@H]2C[C@H]2c2ccc(-c3cccc(CCC(=O)NCCOCCOCCOCCOCCOCCOCCOCCOCCOCCOCCOCCNC(=O)CCCC[C@@H]4SC[C@@H]5NC(=O)N[C@@H]54)c3)cc2)CC1` [Example 1.6, N-(39-(4′-((1S,2R)-2-(((trans)-4-aminocyclohexyl)amino)cyclopropyl)-[1,1′-biphenyl]-3-yl)-37-oxo-3,6,9,12,15,18,21,24,27,30,33-undecaoxa-36-azanonatriacontyl)-5-((3aS,4S,6aR)-2-oxohexahydro-1H-thieno[3,4-d]imidazol-4-yl)pentanamide dihydrochloride]: the IC50 – broadly, the concentration at which inhibition is half-maximal – at Human recombinant MAO-A is more than 100 µM; on Human recombinant MAO-B it was more than 100 µM; against hIL-4I1 (KM phenylalanine, 30 minutes), more than 100 µM; in [4], 13 µM. In addition, at hIL-4I1 (at 100 uM), testing at 100 µM gave an inhibition of 31%.
Regarding `Nc1nnc(CN[C@@H]2C[C@H]2c2ccc(OCc3ccccc3)cc2)o1` [Compound C, (−)5-((((trans)-2-(4-(benzyloxy)phenyl)cyclopropyl)amino)methyl)-1,3,4-oxadiazol-2-amine], the “mean % KDM1A target engagement” value in the data set with KDM1A in brain (brain of female SAMP8 mice, 0.11 or 0.32 mg/kg/day in drinking water, 2 months) is reported as “clear dose-response of KDM1A target engagement”. For the same molecule, in the data set on KDM1A in brain (mouse, in vivo), the brain penetration entry is reported as “enters the brain; also recorded: cross the blood-brain barrier”. Also, on KDM1A in PBMCs, the “KDM1A TE” value is given as “Clear KDM1A target engagement”. In data set [5], the IC50 came to 0.101 µM.
